In brackets after ≈: the same amount, converted by molar mass. Where two headings read alike, the source gives them in different places.
Key:
Assay in all cases: in vitro antimicrobial activity (MIC), agar diffusion well method
Assay type in all cases: cell-based
[1] = test system: Candida albicans 155 (NRRL 477)
Method: (§1) The in vitro antimicrobial activity of the antibiotic (minimal inhibitory concentration) was determined by the agar diffusion well method. The results expressed in micrograms/ml were as follows: […]

[2] = test system: Serratia marcescens SM (ATCC 27857)
Method: as §1

[3] = test system: Penicillium digitatum 0184 (ATCC 26821); details: ATCC26821, BBL Antibiotic Medium "A" Assay Agar
Method: as §1

[4] = test system: Saccharomyces cerevisiae 90 (ATCC 4226)
Method: as §1

[5] = test system: Escherichia coli 94 (ATCC 27856)
Method: as §1

[6] = test system: Streptomyces cellulosae 097 (ATCC 3313)
Method: as §1

[7] = test system: Pseudomonas aeruginosa 56 (ATCC 8709)
Method: as §1

[8] = test system: Streptococcus faecium (ATCC 8043); details: Enterococcus faecium, ATCC8043; BBL Antibiotic Medium "A" Assay Agar
Method: as §1

[9] = test system: Proteus vulgaris 101N (ATCC 6380); details: ATCC6380, BBL Antibiotic Medium "A" Assay Agar
Method: as §1

[10] = test system: Klebsiella pneumoniae 369 (ATCC 27858)
Method: as §1

[11] = test system: Sarcina lutea PCI (ATCC 9341); details: Micrococcus luteus
Method: as §1

[12] = test system: Bacillus sp. TA (ATCC 27860)
Method: as §1

[13] = test system: Mycobacterium phlei 78 (ATCC 355); details: Mycolicibacterium phlei
Method: as §1

[14] = test system: Bacillus megaterium 164 (ATCC 8011); details: Priestia megaterium
Method: as §1

[15] = test system: Bacillus subtilis 558 (NRRL 558)
Method: as §1

[16] = test system: Serratia sp. 101 (ATCC 93)
Method: as §1

[17] = test system: Acinetobacter calcoaceticus PCI-3 (ATCC 10153)
Method: as §1

[18] = test system: Staphylococcus aureus 82 (ATCC 6538 P); details: ATCC6538, BBL Antibiotic Medium "A" Assay Agar
Method: as §1

[19] = test system: Bacillus sp. E (ATCC 27859); details: ATCC27859, BBL Antibiotic Medium "A" Assay Agar
Method: as §1

[20] = test system: Paecilomyces varioti M16 (ATCC 26820)
Method: as §1

In the case of `N[C@@H](CC1CN2C(=O)CC2O1)C(=O)O` (some centres unmarked) [2-(3-alanyl)clavam, 3-(7-oxo-4-oxa-1-azabicyclo[3.2.0]hept-3-yl)alanine], the MIC ([1]; NRRL477, BBL Antibiotic Medium "A" Assay Agar) was > 1000 µg/mL, the MIC ([1]; NRRL477, Davis Minimal Agar) was 500 µg/mL (≈ 2.5 mM) and the MIC ([2]; ATCC27857, BBL Antibiotic Medium "A" Assay Agar) was > 1000 µg/mL. For the same compound, the MIC ([2]; ATCC27857, Davis Minimal Agar) was > 500 µg/mL, the MIC [3] was > 1000 µg/mL and the MIC ([4]; ATCC4226, BBL Antibiotic Medium "A" Assay Agar) was > 1000 µg/mL. For the same compound, the MIC ([4]; ATCC4226, Davis Minimal Agar) was 125 µg/mL (≈ 0.624 mM), the MIC ([5]; ATCC27856, BBL Antibiotic Medium "A" Assay Agar) was > 1000 µg/mL and the MIC ([5]; ATCC27856, Davis Minimal Agar) was 1000 µg/mL (≈ 5 mM). The MIC ([6]; ATCC3313, BBL Antibiotic Medium "A" Assay Agar) was > 1000 µg/mL, the MIC ([6]; ATCC3313, Davis Minimal Agar) was > 500 µg/mL and the MIC ([7]; Davis Minimal Agar) was > 1000 µg/mL. The MIC ([7]; Pseudomonas aeruginosa, ATCC8709, BBL Antibiotic Medium "A" Assay Agar, read-out: MIC) was > 1000 µg/mL, the MIC [8] was > 1000 µg/mL and the MIC [9] was > 1000 µg/mL. For the same compound, the MIC ([10]; ATCC27858, BBL Antibiotic Medium "A" Assay Agar) was > 1000 µg/mL, the MIC ([10]; ATCC27858, Davis Minimal Agar) was 62.5 µg/mL (≈ 0.312 mM) and the MIC ([11]; ATCC9341, BBL Antibiotic Medium "A" Assay Agar) was > 1000 µg/mL. The MIC ([11]; ATCC9341, Davis Minimal Agar) was > 500 µg/mL, the MIC ([12]; ATCC27860, BBL Antibiotic Medium "A" Assay Agar) was > 1000 µg/mL and the MIC ([12]; ATCC27860, Davis Minimal Agar) was 0.03 µg/mL (≈ 0.00015 mM). For the same compound, the MIC ([13]; ATCC355, BBL Antibiotic Medium "A" Assay Agar) was > 1000 µg/mL, the MIC ([13]; ATCC355, Davis Minimal Agar) was > 500 µg/mL and the MIC ([14]; ATCC8011, BBL Antibiotic Medium "A" Assay Agar) was > 1000 µg/mL. For the same compound, the MIC ([14]; ATCC8011, Davis Minimal Agar) was > 500 µg/mL, the MIC ([15]; NRRL558, BBL Antibiotic Medium "A" Assay Agar) was > 1000 µg/mL and the MIC ([15]; NRRL558, Davis Minimal Agar) was 0.25 µg/mL (≈ 0.00125 mM). For the same compound, the MIC ([16]; ATCC93, BBL Antibiotic Medium "A" Assay Agar) was > 1000 µg/mL, the MIC ([16]; ATCC93, Davis Minimal Agar) was 500 µg/mL (≈ 2.5 mM) and the MIC ([17]; ATCC10153, BBL Antibiotic Medium "A" Assay Agar) was > 1000 µg/mL. For the same compound, the MIC ([17]; ATCC10153, Davis Minimal Agar) was > 500 µg/mL, the MIC [18] was > 1000 µg/mL and the MIC [19] was > 1000 µg/mL. For the same compound, the MIC ([20]; ATCC26820, BBL Antibiotic Medium "A" Assay Agar) was 250 µg/mL (≈ 1.25 mM) and the MIC ([20]; ATCC26820, Davis Minimal Agar) was 15.7 µg/mL (≈ 0.0784 mM).

Source: US4202819A, “2-(3-Alanyl)clavam antibiotic” (Hoffman-La Roche Inc., priority 1979, dated 1980)
